In patent US20220411422A1, “ERBB RECEPTOR INHIBITORS” (Dizal (Jiangsu) Pharmaceutical Co., Ltd., priority 2018, published 2022) one finds GI50 and Kp uu data, which are given here for 1 molecule.

Each structure is given as a SMILES string.

The subject of one series is BT474 cells. Nature of the series: BT474 anti-proliferation assay, MTS. The series is classed as cell-based. Conditions: Homo sapiens, BT-474, 72 h, read-out: HER2WT Amplification BT474 GI50. On the procedure:
A compound's activity of selective inhibition for HER2 wild type amplification can be evaluated with BT474 cell line (ATCC® HTB-20™). The cell line expressed phosphorylated HER2 protein and its proliferation depended on the amplified gene, which could be used for in vitro PD and anti-proliferation assays.
The anti-proliferation activity of compounds were determined as following procedure: The BT474 cells were sorted in 384 well plates with the DMEM medium containing 10% FBS and […] overnight and then dosed with tested compounds at a series of concentrations (30 μM, 10 μM, 3 μM, 1 μM, 0.3 μM, 0.1 μM, 0.03 μM, 0.01 μM, 0.001 μM) on next day. Meanwhile, another cells plate was prepared for measuring G0 value on next day. The dosed plates were incubate for 72 h at 37° C. with 5% CO2 and the number of viable cells in each well of G0 or dosed plates were measured by MTS (CellTiter 96® AQueous One Solution Cell Proliferation Assay, Promega) endpoint. This assay is a colorimetric method for determining the number viable cells in the proliferation assay. Detection reagents (5 μl) was dispensed into per well, and the plates were incubated for 2 hrs at room temperature. Then, absorbance at 490 nm and 650 nm (reference wavelength) in each well was measured using the safile II. (Tecan). […]

A short description of series [1]: Blood brain barrier penetration assay in rats (short oral absorption model with blood, plasma and brain binding). In kind it is in vivo. Conditions: male, Han Wistar, CSF, Table 5, rat, read-out: Kp,uu,CSF. The procedure:
In vitro blood, plasma and brain binding assay was carried out with equilibrium dialysis device. […] At the end of incubation, a 50 μL aliquot from the receiver side and a 5 μL from the donor chamber were taken. The 5 μL sample was further diluted with 45 μL of blank blood, plasma or brain homogenate. Paired samples were matrix-matched with either buffer or blank matrix, and mixed for 2 min, and then precipitated with 150 μL cold acetonitrile with 100 ng/mL tolbutamide as internal standard. After centrifuging at 4000 rpm for 20 min, supernatant was diluted with 0.1% formic acid aqueous solution and analyzed for LC/MS/MS (API 4000, Applied Biosystems, Foster City). […] D is dilution factor. […] A Short oral absorption (SOA) model is an in-vivo screening model to identify brain penetration of a compound. Six male Han Wistar rats purchased from Beijing Vital River were orally dosed with the compound. […] Brain tissue was harvested and homogenized in 3× volume of 100 mM phosphate buffered saline (pH7.4). All samples were stored at ˜−70° C. prior to LC/MS/MS analysis. Standards were prepared by spiking blank plasma, blood, brain homogenate and artificial CSF. […] After 2 min vortex and 5 min centrifugation at 14,000 rpm, supernatant was analyzed by LC/MS/MS (API 4000, Applied Biosystems, Foster City). Two sets of standard curves were run at the beginning and end of each batch from blood sample analysis. For brain and CSF samples, one standard curve was analyzed along with test samples. Total brain levels, expressed as brain/blood ratio (Kp,brain) were measured by AUC(brain)/AUC(blood or plasma) in rodents after oral administration. Similarly, CSF levels represented by a ratio of CSF/blood exposure (Kp,CSF) were determined by AUC(CSF)/AUC(blood or plasma). Free fraction of test compound in biological matrix was determined by in vitro blood and brain binding assay. Kp,uu brain and Kp,uu CSF was calculated by the following equation: Kp,uu brain=AUC(brain)/AUC(blood or plasma)×(fubrain/fublood/plasma) and […] Moreover, the ability of Compounds 6 and 16 to cross BBB was assessed in both rat and monkey by measuring unbound brain-to-plasma partition ratio (Kpuu,brain) and unbound CSF-to-plasma partition ratio (Kpuu,CSF) with the method mentioned above.

Broadly, the GI50 is the concentration at which growth is held to half of that of the control. Consider `COc1cc(O[C@H]2CCN(C)CC2(F)F)c2c(Nc3ccc(Oc4ccn5ncnc5c4)c(C)c3)ncnc2c1` (single isomer, unassigned) [Compound 6], for which the GI50 in the series on BT474 cells is roughly 0.02 µM. The Kp uu in series [1] turned out to be 0.87.
